Active and inactive are the calls of the source. How the calls were made is not given here.
System: CCRIS mutagenicity, Ames/micronucleus/aberration tests
Assay: CCRIS mutagenicity studies
[1] = Test System: AMES SALMONELLA TYPHIMURIUM, Strain/Indicator: TA97, Metabolic Activation: HAMSTER, LIVER, S-9, AROCLOR 1254 (10 OR 30%), Method: PREINCUBATION
[2] = Test System: AMES SALMONELLA TYPHIMURIUM, Strain/Indicator: TA97, Metabolic Activation: NONE, Method: PREINCUBATION
[3] = Test System: AMES SALMONELLA TYPHIMURIUM, Strain/Indicator: TA98, Metabolic Activation: HAMSTER, LIVER, S-9, AROCLOR 1254 (10 OR 30%), Method: PREINCUBATION
[4] = Test System: AMES SALMONELLA TYPHIMURIUM, Strain/Indicator: TA98, Metabolic Activation: NONE, Method: PREINCUBATION
[5] = Test System: AMES SALMONELLA TYPHIMURIUM, Strain/Indicator: TA98, Metabolic Activation: RAT, LIVER, S-9, AROCLOR 1254 (10 OR 30%), Method: PREINCUBATION
[6] = Test System: AMES SALMONELLA TYPHIMURIUM, Strain/Indicator: TA100, Metabolic Activation: HAMSTER, LIVER, S-9, AROCLOR 1254 (10 OR 30%), Method: PREINCUBATION
[7] = Test System: AMES SALMONELLA TYPHIMURIUM, Strain/Indicator: TA100, Metabolic Activation: NONE, Method: PREINCUBATION
[8] = Test System: AMES SALMONELLA TYPHIMURIUM, Strain/Indicator: TA100, Metabolic Activation: RAT, LIVER, S-9, AROCLOR 1254 (10 OR 30%), Method: PREINCUBATION
[9] = Test System: AMES SALMONELLA TYPHIMURIUM, Strain/Indicator: TA1535, Metabolic Activation: HAMSTER, LIVER, S-9, AROCLOR 1254 (10 OR 30%), Method: PREINCUBATION
[10] = Test System: AMES SALMONELLA TYPHIMURIUM, Strain/Indicator: TA1535, Metabolic Activation: NONE, Method: PREINCUBATION
[11] = Test System: AMES SALMONELLA TYPHIMURIUM, Strain/Indicator: TA1535, Metabolic Activation: RAT, LIVER, S-9, AROCLOR 1254 (10 OR 30%), Method: PREINCUBATION
[12] = Test System: AMES SALMONELLA TYPHIMURIUM, Strain/Indicator: TA1537, Metabolic Activation: HAMSTER, LIVER, S-9, AROCLOR 1254 (10 OR 30%), Method: PREINCUBATION
[13] = Test System: AMES SALMONELLA TYPHIMURIUM, Strain/Indicator: TA1537, Metabolic Activation: NONE, Method: PREINCUBATION
[14] = Test System: AMES SALMONELLA TYPHIMURIUM, Strain/Indicator: TA1537, Metabolic Activation: RAT, LIVER, S-9, AROCLOR 1254 (10 OR 30%), Method: PREINCUBATION
[15] = Test System: AMES SALMONELLA TYPHIMURIUM, Strain/Indicator: TA100, Metabolic Activation: RAT, LIVER, S-9, AROCLOR 1254, Method: PREINCUBATION

| Structure (SMILES) | mutagenic call [1] | mutagenic call [2] | mutagenic call [3] | mutagenic call [4] | mutagenic call [5] | mutagenic call [6] | mutagenic call [7] | mutagenic call [8] | mutagenic call [9] | mutagenic call [10] | mutagenic call [11] | mutagenic call [12] | mutagenic call [13] | mutagenic call [14] | mutagenic call [15] | further results |
| --- | --- | --- | --- | --- | --- | --- | --- | --- | --- | --- | --- | --- | --- | --- | --- | --- |
| Nc1cc(C(=O)O)c(O)c(S(=O)(=O)O)c1 | inactive; negative | inactive; negative | inactive; negative | inactive; negative | inactive; negative | inactive; negative | inactive; negative | inactive; negative | inactive; negative | inactive; negative | inactive; negative | inactive; negative | inactive; negative | inactive; negative | – | mutagenic call (Test System: AMES SALMONELLA TYPHIMURIUM, Strain/Indicator: TA97, Metabolic Activation: RAT, LIVER, S-9, AROCLOR 1254 (10%), Method: PREINCUBATION): inactive; negative; mutagenic call (Test System: AMES SALMONELLA TYPHIMURIUM, Strain/Indicator: TA97, Metabolic Activation: RAT, LIVER, S-9, AROCLOR 1254 (30%), Method: PREINCUBATION): inactive; negative |
| CC(C)CC(NC(=O)COc1ccc(Cl)cc1Cl)C(=O)O (centres undefined) | – | – | – | – | – | – | – | – | – | – | – | – | – | – | – | mutagenic call (Test System: AMES SALMONELLA TYPHIMURIUM, Strain/Indicator: TA97, Metabolic Activation: RAT, LIVER, S-9, AROCLOR 1254, Method: STANDARD PLATE): inactive; negative; mutagenic call (Test System: AMES SALMONELLA TYPHIMURIUM, Strain/Indicator: TA97, Metabolic Activation: WOODCHUCK, LIVER, S-9, 3-METHYLCHOLANTHRENE, Method: STANDARD PLATE): inactive; negative; mutagenic call (Test System: AMES SALMONELLA TYPHIMURIUM, Strain/Indicator: TA98, Metabolic Activation: RAT, LIVER, S-9, AROCLOR 1254, Method: STANDARD PLATE): inactive; negative; mutagenic call (Test System: AMES SALMONELLA TYPHIMURIUM, Strain/Indicator: TA98, Metabolic Activation: WOODCHUCK, LIVER, S-9, 3-METHYLCHOLANTHRENE, Method: STANDARD PLATE): inactive; negative; mutagenic call (Test System: AMES SALMONELLA TYPHIMURIUM, Strain/Indicator: TA100, Metabolic Activation: RAT, LIVER, S-9, AROCLOR 1254, Method: STANDARD PLATE): inactive; negative; mutagenic call (Test System: AMES SALMONELLA TYPHIMURIUM, Strain/Indicator: TA100, Metabolic Activation: WOODCHUCK, LIVER, S-9, 3-METHYLCHOLANTHRENE, Method: STANDARD PLATE): inactive; negative; mutagenic call (Test System: AMES SALMONELLA TYPHIMURIUM, Strain/Indicator: TA1535, Metabolic Activation: RAT, LIVER, S-9, AROCLOR 1254, Method: STANDARD PLATE): inactive; negative; mutagenic call (Test System: AMES SALMONELLA TYPHIMURIUM, Strain/Indicator: TA1535, Metabolic Activation: WOODCHUCK, LIVER, S-9, 3-METHYLCHOLANTHRENE, Method: STANDARD PLATE): inactive; negative; mutagenic call (Test System: AMES SALMONELLA TYPHIMURIUM, Strain/Indicator: TA1538, Metabolic Activation: RAT, LIVER, S-9, AROCLOR 1254, Method: STANDARD PLATE): inactive; negative; mutagenic call (Test System: AMES SALMONELLA TYPHIMURIUM, Strain/Indicator: TA1538, Metabolic Activation: WOODCHUCK, LIVER, S-9, 3-METHYLCHOLANTHRENE, Method: STANDARD PLATE): inactive; negative |
| Cc1cc2ccccc2c2cc3ccccc3cc12 | – | – | – | – | – | – | – | – | – | – | – | – | – | – | active; positive | mutagenic call (Test System: AMES SALMONELLA TYPHIMURIUM, Strain/Indicator: TA100, Metabolic Activation: RAT, INTACT HEPATOCYTES, AROCLOR 1254, Method: PREINCUBATION): active; positive; mutagenic call (Test System: AMES SALMONELLA TYPHIMURIUM, Strain/Indicator: TA100, Metabolic Activation: RAT, NADPH-FORTIFIED HOMOGENIZED HEPATOCYTES, AROCLOR 1254, Method: PREINCUBATION): active; positive; mutagenic call (Test System: AMES SALMONELLA TYPHIMURIUM, Strain/Indicator: TA100, Metabolic Activation: RAT, SONICATED HEPATOCYTES, AROCLOR 1254, Method: PREINCUBATION): active; positive |
| CC(=O)OC(C)(C)C | – | – | – | inactive; negative | – | – | inactive; negative | – | – | inactive; negative | – | – | inactive; negative | – | inactive; negative | mutagenic call (Test System: AMES SALMONELLA TYPHIMURIUM, Strain/Indicator: TA98, Metabolic Activation: RAT, LIVER, S-9, AROCLOR 1254, Method: PREINCUBATION): inactive; negative; mutagenic call (Test System: AMES SALMONELLA TYPHIMURIUM, Strain/Indicator: TA102, Metabolic Activation: NONE, Method: PREINCUBATION): inactive; negative; mutagenic call (Test System: AMES SALMONELLA TYPHIMURIUM, Strain/Indicator: TA102, Metabolic Activation: RAT, LIVER, S-9, AROCLOR 1254, Method: PREINCUBATION): inactive; negative; mutagenic call (Test System: AMES SALMONELLA TYPHIMURIUM, Strain/Indicator: TA1535, Metabolic Activation: RAT, LIVER, S-9, AROCLOR 1254, Method: PREINCUBATION): inactive; negative; mutagenic call (Test System: AMES SALMONELLA TYPHIMURIUM, Strain/Indicator: TA1537, Metabolic Activation: RAT, LIVER, S-9, AROCLOR 1254, Method: PREINCUBATION): inactive; negative; mutagenic call (Test System: E. COLI, Strain/Indicator: WP2UVRA/PKM, Metabolic Activation: NONE, Method: PREINCUBATION): inactive; negative; mutagenic call (Test System: E. COLI, Strain/Indicator: WP2UVRA/PKM, Metabolic Activation: RAT, LIVER, S-9, AROCLOR 1254, Method: PREINCUBATION): inactive; negative |
| Clc1cccc(-c2ccc(Cl)c(Cl)c2Cl)c1Cl | inactive; negative | inactive; negative | inactive; negative | inactive; negative | inactive; negative | inactive; negative | inactive; negative | inactive; negative | inactive; negative | inactive; negative | inactive; negative | inactive; negative | inactive; negative | inactive; negative | – | mutagenic call (Test System: AMES SALMONELLA TYPHIMURIUM, Strain/Indicator: TA97, Metabolic Activation: RAT, LIVER, S-9, AROCLOR 1254 (10 OR 30%), Method: PREINCUBATION): inactive; negative; mutagenic call (Test System: E. COLI, Strain/Indicator: WP2 UVRA, Metabolic Activation: HAMSTER, LIVER, S-9, AROCLOR 1254, Method: STANDARD PLATE): inactive; negative; mutagenic call (Test System: E. COLI, Strain/Indicator: WP2 UVRA, Metabolic Activation: HAMSTER, LIVER, S-9, Method: STANDARD PLATE): inactive; negative; mutagenic call (Test System: E. COLI, Strain/Indicator: WP2 UVRA, Metabolic Activation: MOUSE, LIVER, S-9, AROCLOR 1254, Method: STANDARD PLATE): inactive; negative; mutagenic call (Test System: E. COLI, Strain/Indicator: WP2 UVRA, Metabolic Activation: MOUSE, LIVER, S-9, Method: STANDARD PLATE): inactive; negative; mutagenic call (Test System: E. COLI, Strain/Indicator: WP2 UVRA, Metabolic Activation: NONE, Method: STANDARD PLATE): inactive; negative; mutagenic call (Test System: E. COLI, Strain/Indicator: WP2 UVRA, Metabolic Activation: RAT, LIVER, S-9, AROCLOR 1254, Method: STANDARD PLATE): inactive; negative; mutagenic call (Test System: E. COLI, Strain/Indicator: WP2 UVRA, Metabolic Activation: RAT, LIVER, S-9, Method: STANDARD PLATE): inactive; negative |

From PubChem BioAssay AID1259407 (Chemical Carcinogenesis Research Information System (CCRIS), 2018)
